One molecule from PMC5025780, “Copper(II) ions affect the gating dynamics of the 20S proteasome: a molecular and in cell study” (Scientific Reports, 2016) can be followed below.

Experiment [1] addresses T1, human 20S proteasome (hCP), C-L activity.
T1 construct: purchased Boston Biochem (Cambridge, MA, USA)
In words: C-L peptidase activity of isolated hCP (fluorogenic substrate). It is filed as biochemical. The text has this: (§1) Purified human 20S proteasome (hCP) and the fluorogenic substrates Suc-LLVY-AMC, Z-Leu-Leu-Glu-AMC, and Ac-Arg-Leu-Arg-AMC used to assay the ChT-L, T-L, and C-L activity, were from Boston Biochem (Cambridge, MA, USA). Bathocuproinedisulfonic acid disodium salt (BCS), dithiothreitol (DTT), N-Acetyl-L-Cysteine (NAC), Sodium dodecylsulphate (SDS) as well as CuCl2 and Zn(NO3)2 were from Sigma-Aldrich (St. Louis, MO). Proteasome inhibitors Epoxomicin were obtained from Enzo Life Science. Wild type 20S proteasome isolated from Saccharomices Cerevisiae (yCP) and a mutant (α3ΔN) where nine residues of the N-terminal tail of the α3 subunit are deleted to provide a permanently open-gate conformations were isolated as described elsewhere.
(§2) Peptidase activities of hCP (2 nM) were assayed on in 50 μL Tris 25 mM pH 7.6, at 37 °C with 100 μM of the fluorogenic substrate. hCP was incubated with Cu(II)/Zn(II) ions for 1 h prior activity assays. The fluorescence signal activated by peptide cleavage was recorded at 440 nm (excitation at 360 nm) for 45 min, by a Varioskan (Thermo^©) plate reader in 384 multiwell plates. Three replicates were performed for each data point. Data were reported as normalized percentages of residual activity. The potency (IC50) was calculated from the value of the dose response plot corresponding at a fractional activity of 50%. The IC50 values were determined using a non linear fit of experimental data in according to equation: […]
(§3) The midpoint of this function occurs at a fractional activity value of 50%, corresponding to half inhibition of the target enzyme. The IC50 values and their standard errors were deduced from the fitting. To evaluate if copper is a reversible PI, we measured the ChT-L activity of hCP incubated with Cu(II) (2.20 μM) before and after addition of an equimolar amount of EDTA.

Experiment [2] relates to T2, α3ΔN mutant 20S proteasome.
T2 construct: made in house; host or cells: Saccharomyces cerevisiae (mutant strain)
In words: ChT-L peptidase activity of α3ΔN open-gate mutant yeast proteasome. It is filed as biochemical, Saccharomices Cerevisiae. To be noted: permanently open gate mutant. An excerpt: All the experimental data collected so far reconcile with the hypothesis that Cu(II) ions have a direct influence on the gating mechanisms of the 20S proteasome. To further validate this hypothesis, we assayed the effect of Cu(II) ions on the ChT-L peptidase activity of a mutant proteasome (α3ΔN) where deletion of the first nine N terminal residues of the α3 subunit results in permanently open gate conformation. […] It is worthy to remark here that several histidine residues are located at the entrance of the channel and, more specifically in the proximity of the N-terminal tail of the α3 subunit (Fig. 4 panels B and C). It is tempting to speculate that these His residues may play a major role in driving the Copper(II) –mediated gating dynamics.
Purified human 20S proteasome (hCP) and the fluorogenic substrates Suc-LLVY-AMC, Z-Leu-Leu-Glu-AMC, and Ac-Arg-Leu-Arg-AMC used to assay the ChT-L, T-L, and C-L activity, were from Boston Biochem (Cambridge, MA, USA). Bathocuproinedisulfonic acid disodium salt (BCS), dithiothreitol (DTT), N-Acetyl-L-Cysteine (NAC), Sodium dodecylsulphate (SDS) as well as CuCl2 and Zn(NO3)2 were from Sigma-Aldrich (St. Louis, MO). Proteasome inhibitors Epoxomicin were obtained from Enzo Life Science. […]

Experiment [3] deals with T3, Wild type 20S proteasome (yCP).
T3 construct: made in house; host or cells: Saccharomyces cerevisiae
In words: ChT-L peptidase activity of wild type yeast 20S proteasome (yCP). Conditions: one-way ANOVA, p < 0.05. It is filed as biochemical, Saccharomices Cerevisiae.
Text: Figure 4 (A) Copper(II)-inhibited ChT-L peptidase activity of yCP (red bars) and the α3ΔN mutant (green bars); (pdb code: 4Q1S). […] (B) Top views of the α-rings of yCP. C); Magnified picture of the yCP gate. The first nine residues of the α3 subunit, which are not present in the α3ΔN mutant, are represented in magenta. Two histidines (α6-H14 and α1-H6) located at the entrance of the gate and near the N-terminal segment of the α3 subunit are evidenced in red. A third His residue (α3-H30) is far away from the gate and is not shown.
as §1

Experiment [4] concerns proteasome ChT-L activity in HeLa cells. In words: Proteasome-Glo Chymotrypsin-Like Cell-Based Assay in intact HeLa cells. On the set-up: species or system human. To be noted: for Copper-induced proteasome inhibition in cells pretreated with NAC: 100 μM NAC pretreatment 24 h. The protocol: HeLa cells (human cervix carcinoma), were cultured in Dulbecco’s MEM medium (Life Technologies) supplemented with 10% of fetal calf serum (FCS, Life Technologies), glutamax (Invitrogen), 100 U/mL penicillin, 100 µg/mL streptomycin. Cells were routinely grown as stocks in 75 cm^2 flasks in a humidified atmosphere (95% air, 5% CO2) at 37 °C.
The ChT-L proteolytic activity of the proteasome in intact HeLa cells were determined using the Proteasome-Glo™ Chymotrypsin-Like Cell-Based Assay (Promega) according to manufacturer's instructions. Briefly, 800 cells/well were grown in 384 sterile multiwells (optical plate and white walls) in 50 μl of DMEM + FBS10% + PenStrep 1%. After 4 h of cell seeding, Cu(II) was added in cell medium in a concentration range 10–80 μM for 24 h. Then the medium was removed and replaced with FCS free medium. To determine whether or not the residual proteolytic measured was dependent on to proteasome rather than other proteases, we performed a control experiment with epoxomicin, a specific proteasome inhibitor. Epoxomicin (5 μM) was added to the cells 60 min before the proteasome activity assay. The substrate for the β5 ChT-L activity (Suc-LLVY-aminoluciferin) was dissolved in Proteasome-Glo™ Cell-Based Reagent and added to intact cells. After 2 min of shaking for permeabilization and further 10 min of incubation at 25 °C, luminescence was measured with a Varioskan Flash (Thermo) micro plate reader. Proteasome activity in intact cells was also measured by using the internally quenched fluorogenic substrate H2N-K-K(Dabcyl)-K-K-L-L-V-Y-G-E(Edans)-G-R-K-K-R-R-Q-R-R-R- (TED) as described elsewhere. […] The peptide purity was determined by MALDI-TOF experiments carried out with a Bruker Reflex III time-of-flight (TOF) mass spectrometer operating in the reflection mode, and the matrix used was α-cyano 4-hydroxycinnamic. […] TED internalization and cleavage in live HeLa cells was assayed by fluorescence microscopy (see Figure S8 of Supplementary Information).

For experiment [5], the target named is T4, human 20S proteasome (hCP), ChT-L activity.
T4 construct: purchased Boston Biochem (Cambridge, MA, USA)
In words: ChT-L peptidase activity of isolated hCP (Suc-LLVY-AMC fluorogenic substrate). It is filed as biochemical.
Text: as §1, §2, §3

Read-outs that look alike come from different tables or passages of the source.

One may read the IC50 as the concentration needed to halve the response being measured. With `[Cl][Cu][Cl]` [Cu(II), CuCl2], the IC50 was determined as 1.01 µM in experiment [1] (hCP 2 nM, 1 h preincubation with ions, Tris 25 mM pH 7.6, 37 °C, no SDS, read-out: IC50 C-L); 1.83 µM in experiment [1] (in the presence of 0.018% SDS, other conditions unmodified, read-out: IC50 C-L, Cu(II) + SDS); 1.19 µM in experiment [5] (hCP 2 nM, 1 h preincubation with ions, Tris 25 mM pH 7.6, 37 °C, no SDS, read-out: IC50 ChT-L); 0.73 µM in experiment [5] (in the presence of 0.018% SDS, other conditions unmodified, read-out: IC50 ChT-L, Cu(II) + SDS). The “Effect on ChT-L peptidase activity of α3ΔN mutant” value in experiment [2] is on record as “did not affect proteasome activity”. Moreover, in experiment [3], the “ChT-L activity of yCP at 5 μM versus 3 μM” value is recorded as “significantly lower”. For the same molecule, the figures for the “Copper-induced proteasome inhibition in cells pretreated with NAC” value in experiment [4] (Cu(II) 80 μM) and in experiment [4] (Cu(II) 20–40 μM) were “did not overcome proteasome inhibition” and “completely abolished”, respectively. The “ChT-L activity in HeLa cells (normalized to untreated controls)” value in experiment [4] (Cu(II) 20 to 80 μM in medium, 24 h) was found to be 60%. Further, in experiment [5] (hCP incubated with Cu(II) 2.20 μM, equimolar EDTA added), the “Recovery of ChT-L activity after EDTA addition (reversibility)” value was “did not evidence any recovery of the ChT-L activity”.
